How the values were obtained:
[1] = test system: dissociated hippocampal and/or cortical neurons; assay: Neuronal survival assay in vitro (5-day exposure); assay type: cell-based, rat
Method: (§1) The neuroprotective and neurotropic actions of the herein defined peptides were determined by their effects upon fetal rodent neuronal cultures. […] The dissociated cells were be plated at low density (50,000 cells/35-mm dish) upon confluent layers of astrocytes. The astrocyte feeder layers were prepared from the hippocampi and/or cortices of 2-day-old rat pups. Following treatment with 0,125% trypsin for 15 min, the tissue was triturated and plated at 2.5×10^5 cells into 35-mm tissue culture dishes coated with Vintrogen (Collagen, Palo Alto) and poly-L-lysine (M1 30-70K 10^-5 M borate, pH 8.4, Sigma). The resulting feeder layers were grown in Eagle's minimal essential medium (MEM, formula 82-0234, Gibco) with 10% fetal bovine serum until confluent (12-14 days); feeder layers prepared in this way were devoid of neurons and consisted predominantly of flat cells that were stained by antibodies to glia fibrillary acidic protein. When hippocampal and/or cortical neurons were added to the confluent feeder cultures, the medium was changed to 94% MEM, 5% horse serum (Gibco) and an added nutrient supplement containing insulin, transferrin, putrescine, selenium, corticosterone, progesterone and triiodothyronine. The resulting mixed neuron/glia cultures are treated one day after plating with 5'-fluoro-2'-deoxyuridine (15 μg/ml plus uridine, 35Mg/ml) to suppress the overgrowth of background cells. The neuronal cultures were allowed to grow for one week prior to the beginning of the experimental period and the medium was changed prior to adding peptides or controls.
The test period of exposure to peptides was five days long, a period in which cell survivability can be accurately quantitated. […] Neurons were counted in 100 fields at predetermined stage coordinates. Cultures were coded and counted in a blinded fashion without knowledge of sample treatment. The total area counted was 50 mm^2. […] The maximum effect was detected at 0.1 nM, with approximately a 25% increase in cell survival compared to vehicle (Control) treated cultures.

[2] = test system: hippocampal neuronal cells; assay: Twenty one day survival of hippocampal neuronal cell cultures; assay type: cell-based, rat; details: 0.1 nM
Method: as §1, with “The resulting mixed neuron/glia cultures are treated one day after plating with 5'-fluoro-2'-deoxyuridine (15 μg/ml plus uridine, 35Mg/ml) to suppress the overgrowth of background cells. The neuronal cultures were allowed to grow for one week prior to the beginning of the experimental period and the medium was changed prior to adding peptides or controls.” left out

C[C@@H](N)C(=O)N[C@@H](CO)C(=O)N[C@H](C(=O)N[C@H](C(=O)N[C@H](C(=O)N[C@@H](CC(N)=O)C(=O)N[C@@H](Cc1ccc(O)cc1)C(=O)N[C@H](C(N)=O)[C@@H](C)O)[C@@H](C)O)[C@@H](C)O)[C@@H](C)O [DAPTA] was tested, and the “effect on neuronal survival (neuronal cell count as percentage of Control)” value ([1]; 7-day-old neuronal cultures, five days exposure, vs vehicle control, FIG. 1) was “caused an increase in neuronal survival”, the “increase in cell survival compared to vehicle (Control) treated cultures” value ([1]; at 0.1 nM (maximum effect), five days) was roughly 25% and the “concentration of maximum effect on neuronal survival” value ([1]; five days exposure, FIG. 1) was 0.1 nM. The “increase in cell survival compared to vehicle treated cultures” value ([2]; after twenty one days, FIG. 2) was 4 fold and the “cell survival rate over the test period” value ([2]; at all times during the twenty one day test period, vs vehicle) was “enhanced”.
